# Results: patent US20220304992A1, “METHODS OF REJUVENATING AGED TISSUE BY INHIBITING 15-HYDROXYPROSTAGLANDIN DEHYDROGENASE (15-PGDH)” (The Board of Trustees of the Leland Stanford Junior …, priority 2019, published 2022)
# Assays:
# [1] = system: pFOXO; assay: Immunoblots of muscle lysates from aged vehicle and SW treated mice; assay type: in vivo, mouse; settings: aged muscles, SW vs vehicle
# Protocol: Total lysates were prepared using lysis buffer (50 mM Tris-HCl pH 7.5, 150 mM NaCl, 4 mM CaCl, 1.5% Triton X-100, protease inhibitors and micrococcal nuclease). For tissue extracts, lysates were homogenized a FastPrep 24 homogenizer (MP Biomedicals) for 40 seconds at a speed of 6 m/s. We used the following antibodies: 15-PGDH (Santa Cruz Biotechnology, cat # sc-271418); phospho-AKT (Ser 473) (Cell Signaling cat #4060), AKT (Cell signaling cat #2920); phospho-FoxO1 (Thr24)/FoxO3a (Thr32) Antibody (Cell Signaling cat #9464T); Foxo3a (Cell Signaling cat #2497); phospho-CREB (Ser133) (Cell Signaling cat #9198S); phospho-S6 ribosomal protein (Ser235/236) (Cell Signaling cat#4858); SMC1 (Bethyl Laboratories cat# A300-055A-T). We used HRP conjugated secondary antibodies and developed by incubating the membranes with ECL Western Blotting Substrate (Nacalai USA) and imaging using the ChemiDoc Imaging System (BioRad).
# [2] = system: atrogene and other transcript levels in aged muscles; assay: Quantitative RT-PCR of treated aged muscle tissue; assay type: in vivo, mouse
# Source text: We isolated RNA from MuSCs using the RNeasy Micro Kit (Qiagen). For muscle samples, we snap froze the tissue in liquid nitrogen, homogenized muscles in Trizol (Invitrogen) using the FastPrep FP120 homogenizer (MP Biomedicals), and then isolated RNA. We reverse-transcribed cDNA from total mRNA from each sample using the SensiFAST™ cDNA Synthesis Kit (Bioline). We subjected cDNA to RT-PCR using SYBR Green PCR Master Mix (Applied Biosystems) or TaqMan Assays (Applied Biosystems) in an ABI 7900HT Real-Time PCR System (Applied Biosystems). We cycled samples at 95° C. for 10 min and then 40 cycles at 95° C. for 15 s and 60° C. for 1 min. To quantify relative transcript levels, we used 2-ΔΔCt to compare treated and untreated samples and expressed the results relative to Gapdh.
# For SYBR Green qRT-PCR, we used the following primer sequences: Gapdh, 30 forward 5′-[…]-3′, reverse 5′-[…]-3′; Hpgd, forward 5′-[…] -3′, reverse 5′-[…]-3′; Ptger1, forward 5′ […]-3′, reverse 5′-[…]-3′, Ptger2, forward 5′-[…]-3′, reverse 5′-[…]-3′, Cox2, forward, 5′-[…]-3′, reverse 5′-[…]-3′; Fbxo32, forward 5′-[…]-3′, reverse 5′-[…]-3′. For murine senescence markers and senescence associated markers we used the previously described primers (6).
# TaqMan Assays (Applied Biosystems) were used to quantify Pax7, Myh, p21, Ptger3 and Ptger4 in samples according to the manufacturer instructions with the TaqMan Universal PCR Master Mix reagent kit (Applied Biosystems). Transcript levels were expressed relative to Gapdh levels. For SYBR Green qPCR, Gapdh qPCR was used to normalize input cDNA samples. For Taqman qPCR, multiplex qPCR enabled target signals (FAM) to be normalized individually by their internal Gapdh signals (VIC).
# We isolated RNA from MuSCs, myoblasts and myotubes using the RNeasy Kit (Qiagen). Muscle samples were snap frozen in liquid nitrogen, then homogenized in Trizol (Invitrogen) using the FastPrep FP120 homogenizer (MP Biomedicals) before isolating RNA. We reverse-transcribed cDNA from total mRNA from each sample using the SensiFAST™ cDNA Synthesis Kit (Bioline). We subjected cDNA to RT-PCR using SYBR Green PCR Master Mix (Applied Biosystems) or TaqMan Assays (Applied Biosystems) in an ABI 7900HT Real-Time PCR System (Applied Biosystems). […] To quantify relative transcript levels, we used 2-ΔΔCt to compare treated and untreated samples and expressed the results relative to Gapdh. […]
# For murine senescence markers and senescence associated markers we used the previously described primers (2). TaqMan Assays (Applied Biosystems) were used to quantify p21, Mstn, Ptger3 and Ptger4 in samples according to the manufacturer instructions with the TaqMan Universal PCR Master Mix reagent kit (Applied Biosystems). […] Mitochondrial copy number was quantified by using method and primers described previously (14).
structure (smiles),measurement,setting,value
"CCCC[S+]([O-])c1sc2nc(-c3cccs3)cc(-c3ccccc3)c2c1N (centres unmarked) [SW033291, 2-(butylsulfinyl)-4-phenyl-6-(thiophen-2-yl)thieno[2,3-b]pyridin-3-amine]",pFOXO,[1],increased
same,"other aging, inflammatory and autophagy markers","[2]; aged mice, SW treatment",no significant changes
same,Pgc1α mRNA level,"[2]; aged muscles, SW treatment",restored to that seen in young muscles
same,expression of Fbxo32 (Atrogin1) at the mRNA level,"[2]; aged muscles, SW treatment",decreased expression
same,"expression of atrogenes (Atrogin-1, MuRF1, Musa1, Smart) and Traf6 by RT-qPCR","[2]; aged muscles, SW vs vehicle",diminished
